# Laboratory results from patent US20170348343A1, “METHODS OF TREATING HEPATITIS E VIRAL INFECTION” (Gilead Pharmasset LLC, priority 2016, published 2017).
# System: HEV
# Assay: HEV RNA test in a human subject with HEV infection (case, Example 1)
# Type: in vivo
# Procedure: A human subject was identified as having AIDS, Kaposi's sarcoma, non-Hodgkin's lymphoma, compensated cirrhosis, and a history of alcoholism. An HEV RNA test of the subject was conducted, and the result was positive, at approximately 20,000 IU/mL. The subject was started on ribavirin monotherapy, wherein ribavirin was administered to the subject at 800 mg once per day. […] The subject was then started on a treatment wherein ribavirin administration was continued at 800 mg per day and sofosbuvir was also administered at 400 mg per day. After four weeks of such treatment, the subject's HEV RNA levels were below the lower limit of detection of about 25 IU/mL.
SMILES,"HEV RNA levels (sofosbuvir 400 mg per day together with continued ribavirin 800 mg per day, after four weeks, same subject, lower limit of detection about 25 IU/mL) [IU/mL]","HEV status (ribavirin monotherapy 800 mg once per day for over one year, human subject, baseline HEV RNA approximately 20,000 IU/mL)"
"CC(C)OC(=O)[C@H](C)N[P@](=O)(OC[C@H]1O[C@@H](n2ccc(=O)[nH]c2=O)[C@](C)(F)[C@@H]1O)Oc1ccccc1 [sofosbuvir, (S)-isopropyl 2-(((S)-(((2R,3R,4R,5R)-5-(2,4-dioxo-3,4-dihydropyrimidin-1(2H)-yl)-4-fluoro-3-hydroxy-4-methyltetrahydrofuran-2-yl)methoxy)(phenoxy)phosphoryl)amino)propanoate]",< 25,
NC(=O)c1ncn([C@@H]2O[C@H](CO)[C@@H](O)[C@H]2O)n1 [ribavirin],,remained HEV-positive
